Assay results as given in PubChem BioAssay (NCI).
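Grown in 96-well plates, cells were treated for 48 hours with each compound at five concentrations. Insufficient inhibition: endpoint recorded as highest concentration tested. GI50 marks 50% less growth. At the TGI there is no net growth.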

Columns and labels:
Experiment in all cases: growth of human tumour cells (NCI), 48 h
PC-3 prostate = test system: PC-3 prostate
HCT-15 colon = test system: HCT-15 colon
EKVX NSCLC = test system: EKVX NSCLC
LOX IMVI melanoma = test system: LOX IMVI melanoma
BT-549 breast = test system: BT-549 breast
OVCAR-8 ovarian = test system: OVCAR-8 ovarian
CAKI-1 renal = test system: CAKI-1 renal
SNB-19 CNS = test system: SNB-19 CNS
CCRF-CEM leukemia = test system: CCRF-CEM leukemia
M14 melanoma = test system: M14 melanoma

Structure (SMILES)	GI50 (PC-3 prostate) [µM]	TGI (PC-3 prostate) [µM]	GI50 (HCT-15 colon) [µM]	TGI (HCT-15 colon) [µM]	GI50 (EKVX NSCLC) [µM]	TGI (EKVX NSCLC) [µM]	GI50 (LOX IMVI melanoma) [µM]	TGI (LOX IMVI melanoma) [µM]	GI50 (BT-549 breast) [µM]	TGI (BT-549 breast) [µM]	GI50 (OVCAR-8 ovarian) [µM]	TGI (OVCAR-8 ovarian) [µM]	GI50 (CAKI-1 renal) [µM]	TGI (CAKI-1 renal) [µM]	GI50 (SNB-19 CNS) [µM]	TGI (SNB-19 CNS) [µM]	GI50 (CCRF-CEM leukemia) [µM]	TGI (CCRF-CEM leukemia) [µM]	GI50 (M14 melanoma) [µM]	TGI (M14 melanoma) [µM]
CCCOC(=O)N1CCN(/[N+]([O-])=N/Oc2ccc([N+](=O)[O-])cc2[N+](=O)[O-])CC1	4.14	15.1	2.2	5.65	2.64	7.79	0.32	1.08	3.46	11.7	9.35	72.8	2.16	5.04	5.08	18.7	–	–	–	–
O=C(COc1ccc(/C=C2\Oc3ccccc3C2=O)cc1)Nc1nc2c(s1)CCCC2	16.8	> 100	25.1	> 100	10.7	> 100	0.0175	0.0317	4.44	> 49.8	–	–	0.801	8.28	46.9	> 100	0.148	0.309	16.1	> 100
CC1(C)[C@@H](OC(N)=O)[C@H]2O[C@H]2[C@]2(CO)[C@H]3CC[C@]4(C)[C@@H](c5ccc(=O)oc5)[C@@H](Cl)C[C@]4(O)C3=CC[C@@H]12	0.00803	0.0275	0.00798	0.0304	0.00534	< 0.0138	0.00595	0.0157	0.00695	0.0257	0.00863	0.0297	0.00521	0.0132	0.0161	0.0509	0.00768	0.0264	0.0161	0.0558
COc1ccc(/C=C2\S/C(=N/Nc3nc(-c4ccccc4)cs3)NC2=O)cc1OC	–	52.6	–	69	–	98.4	–	65.6	–	81.3	–	47.5	–	> 100	–	89.9	–	22.3	–	> 100
CC1=C(CO)C(=O)O[C@@H]([C@@H](C)[C@H]2CC[C@H]3[C@@H]4C[C@@H](O)[C@@]5(O)CC=CC(=O)[C@]5(C)[C@H]4CC[C@]23C)C1	–	> 100	–	32.5	–	> 100	–	> 100	–	93.8	–	> 100	–	> 100	–	> 100	–	> 100	–	> 100
O=C(/C=C/c1ccc([N+](=O)[O-])cc1)c1ccc2c3c(cccc13)CC2	4.72	> 100	5.07	> 100	62.9	> 100	4.26	17.6	23.6	> 90.4	22.2	> 100	9.69	> 100	3.36	17.4	5.21	> 100	> 64.6	> 100
COc1ccc(C(=O)c2cc3c(N)c(C(=O)Nc4cccc5ccccc45)sc3nc2C)cc1	0.212	> 50	0.192	> 50	0.294	> 50	0.287	> 50	0.379	> 50	0.285	> 50	0.243	> 50	0.208	> 50	0.199	> 50	0.166	> 50
CC(C)(O)CC(=O)NCCn1ccc2ncnc(Nc3ccc(Oc4cccc(C(F)(F)F)c4)c(Cl)c3)c21	3.46	> 10	2.5	> 10	0.415	> 10	2.34	> 10	5.52	> 10	3.65	> 10	1.8	> 10	3.91	> 10	3.26	> 10	4.17	> 10
CCc1ccc(NC(=O)COC(=O)c2cc([N+](=O)[O-])ccc2Sc2nnnn2C)cc1	15.2	84.5	13	37.3	29.5	> 100	6.75	22	4.42	26.6	–	–	13.7	46.5	16.5	52.1	9.11	78.3	3.16	26
COc1ccc(C2SC(C)C(=O)N2NC(=O)C(O)c2ccccc2)cc1OC (stereo not given)	> 100	> 100	> 100	> 100	> 100	> 100	> 100	> 100	> 100	> 100	> 100	> 100	> 100	> 100	> 100	> 100	> 100	> 100	> 100	> 100
Cc1ccc(CNc2c3ccccc3nc3cc(NC(=O)CCN4CCCC4)ccc23)cc1	0.515	1.83	1.29	2.63	0.862	2.25	0.515	1.76	1.47	2.88	–	–	1.23	3.91	0.624	1.92	0.392	2.12	1.45	2.84
COc1cc([C@H]2OC[C@H]3[C@@H]2CO[C@@H]3c2cc(OC)c3c(c2)OCO3)cc(OC)c1OC	–	> 100	–	> 100	–	> 100	–	> 100	–	> 100	–	> 100	–	> 100	–	> 100	–	–	–	> 100
O=C1c2ccccc2-c2c1c1ccccc1c(=O)n2CCN1CCOCC1	> 100	> 100	78.5	> 100	98.8	> 100	40.5	> 100	> 100	> 100	60.6	> 100	23.9	90.3	> 100	> 100	49.1	> 100	–	–
C1CN(SSN2CCOCC2)CCO1	25	> 100	35.6	> 100	> 100	> 100	–	–	30	> 100	52.1	> 100	33.7	> 100	> 100	> 100	43.9	> 100	20.6	48.9
